Measured values from article PMC10489817, “2-Alkyl-Substituted-4-Amino-Thieno[2,3-d]Pyrimidines: Anti-Proliferative Properties to In Vitro Breast Cancer Models” (Molecules, 2023).
“And” between values parts separate entries of the source, which are not always exact repeats. Equal entries are not always repeated. Where two headings read alike, the source gives them in different places.

Tests used:
MCF-7 [1] = test: ζ-potential measurement, MCF-7; assay type: cell-based, human; settings: PBS pH 7.4, 37 °C; more negative after treatment
Description: (§1) First, the ζ-potential of each cell line was measured, and all obtained values were negative (Figure 6A). The Student t-test statistical analysis which was applied distinguished the ζ-potentials of the three studied cell lines with p < 0.05, and the values followed the order of MCF-7 > MDA-MB-231 > MCF-10A. […] represents the relative percentage change of the ζ-potential induced by the studied compounds for the different cell lines. Compound 2 was able to decrease the ζ-potential of the cells with the following ranking: MCF-7 (42%) > MCF-10A (24%) > MDA-MB-231 (16%). For compound 4, the ranking was as follows: MCF-10A (50%) > MDA-MB-231 (46%) > MCF-7 (3%). For compound 5, this was MCF-10A (36%) > MCF-7 (22%) > […].
(§2) The zeta (ζ ξ) potential is the electrostatic potential at the shear plane of a cell, and is related to both its surface charge and the local environment. The ζ-potential of the intact cells and the treated ones was recorded in a cell suspension (0.5 × 10^6 cells/mL) in PBS, using the electrophoretic light-scattering technique on a Zetasizer Nano ZS analyzer (Malvern Instruments, Great Britain). Laser Doppler electrophoresis and velocimetry of cells were used to determine the ζ-potential by measuring the speeds of the cells in PBS upon the application of an electric field. The ζ-potential was calculated based on the Helmholtz–Smoluchowski equation. The measurements were performed in a U-shaped cell with gold-plated electrodes at 37 °C.
(§3) Figure 6 ζ-potential of the investigated cell lines, MCF-10A, MCF-7, and MDA-MB-231 (A). Alterations in the ζ-potential after treatment with compounds 2 (pink), 4 (blue), and 5 (green) (B). All zeta potential values were measured in PBS buffer (137 mM NaCl, 2.7 mM KCl, 8 mM Na2HPO4, and 2 mM KH2PO4; pH 7.4) at 37 °C. Two independent experiments were carried out for each cell line, and each sample was measured 6 times. (*; ***) denote p < 0.05 and p < 0.001 as follows. […]

MDA-MB-231 = test: ζ-potential measurement, MDA-MB-231; assay type: cell-based, human; settings: PBS pH 7.4, 37 °C; more negative after treatment
Description: as §1, §2, §3

MCF-7 [2] = test: Cell cycle analysis by propidium iodide staining, MCF-7; assay type: cell-based, human; settings: for cell cycle arrest phase, MCF-7: ER positive cell line; for change of %G1 vs control, MCF-7 / change of %G2 vs control, MCF-7 / change of %S vs control, MCF-7: control = 100%, 24 h; for %G1, MCF-7 / %G2, MCF-7 / %S, MCF-7: treated at IC50, 24 h
Description: Our study continued with the examination of the effect of the newly synthesized compounds’ IC50 values on cell cycle progression. The cell aliquots were collected, and FACS analyses were used to detect the effects of cell treatments with the selected compounds (2, 4, and 5). A propidium iodide staining assay was performed.
The changes in the cell cycle distribution in % (G1, S, and G2 phases), based on the graphical figures A–C, were calculated and are given in Table 4.
The cells were trypsinized, suspended in medium + 10% FCS, and centrifuged (1000 rpm, 5 min); then, the pellet was suspended in PBS (1 mL) and fixed with EtOH. The cells were suspended in 2.5 mL pre-cold 70% EtOH and incubated on ice for 15 min. The staining procedure was as follows: the pellet was suspended in a 500 μL PI-solution in PBS and 0.1 mg/mL RNase A, and 0.05% Triton X-100 was added. After incubation for 10 min at 37 °C, the cells were transferred to the flow cytometer and cell fluorescence was measured. The samples were measured by flow cytometry (LSR II, BD Biosciences, Franklin Lakes, NJ, USA) and analyzed using BD FACS DIVA software v. 6.1.3 (BD Biosciences).

MCF-10A [3] = test: ζ-potential measurement, MCF-10A; assay type: cell-based, human; settings: PBS pH 7.4, 37 °C; more negative after treatment
Description: as §1, §2, §3

MCF-10A [4] = test: MTT anti-proliferative test, MCF-10A; assay type: cell-based; settings: Homo sapiens
Text: The MCF-10A cell line (normal human mammary epithelial cells) served as a reference control.
All breast cell lines (MCF-10A, MCF-7, and MDA-MB-231) were purchased from the American Type Culture Collection—ATCC (Manassas, VA, USA). The MCF-7 and MDA-MB-231 were cultivated in Dulbecco’s modified Eagle’s medium (DMEM) and supplemented with 10% fetal bovine serum (FBS), 1% sodium pyruvate, and 1% MEM non-essential amino acids (NEAA) without antibiotics. The non-tumorigenic breast cell line (MCF-10A) was cultivated in DMEM medium (Sigma-Aldrich, St. Louis, MO, USA) and supplemented with 10% FBS, 1% sodium pyruvate, 1% non-essential amino acids (NEAA), 20 ng/mL human epithelia growth factor (hEGF), 10 μg/mL insulin, and 0.5 μg/mL hydrocortisone without antibiotics. All cell lines were maintained in a humidified atmosphere, with 5% CO2 at 37 °C.
Using the standard MTT-dye reduction assay described by Mosmann, the anti-proliferative activity was tested. The method is based on the metabolism of the tetrazolium salt MTT to insoluble formazan. The formazan absorption was registered using a microplate reader at λ = 540 nm. The measured absorption is an indicator of cell viability and metabolic activity. Anti-proliferative activities were expressed as IC50 values (concentrations required for 50% inhibition of cell growth), calculated using non-linear regression analysis (GraphPad Software, San Diego, CA, USA).

[5] = read-out: IC50 MCF-10A (converted)
[6] = read-out: IC50 of Mean ± SD, Anti-Proliferative Activity MCF-10A

Structure (SMILES)	Δζ/ζ relative change of ζ-potential, MCF-7 (MCF-7 [1])	Δζ/ζ relative change of ζ-potential, MDA-MB-231 (MDA-MB-231)	cell cycle arrest phase, MCF-7 (MCF-7 [2])	change of %G1 vs control, MCF-7 (MCF-7 [2])	change of %G2 vs control, MCF-7 (MCF-7 [2])	change of %S vs control, MCF-7 (MCF-7 [2]) [%]	%G1, MCF-7 (MCF-7 [2]) [%]	%G2, MCF-7 (MCF-7 [2]) [%]	%S, MCF-7 (MCF-7 [2]) [%]	Δζ/ζ relative change of ζ-potential, MCF-10A (MCF-10A [3])	IC50 (MCF-10A [4]; [5]) [µM]	IC50 (MCF-10A [4]; [6]) [µg/mL]
CCOC(=O)Cc1nc(N)c2c(C)c(C(=O)OCC)sc2n1 [Compound 2, Ethyl 4-Amino-2-(2-Ethoxy-2-Oxoethyl)-5-Methylthieno[2,3-d]Pyrimidine-6-Carboxylate]	42.14% and 42%	16.04% and 16%	arrest was detected in the G1 phase	+11.1%	+7.75%	−7.65	44.9	10.7	39.8	24.27% and 24%	1700	503 ± 16.7
CCOC(=O)c1sc2nc(CC)nc(N)c2c1C [Compound 4, Ethyl 4-Amino-2-Ethyl-5-Methylthieno[2,3-d]Pyrimidine-6-Carboxylate]	3.35% and 3%	45.51% and 46%	arrest was detected in the G1 phase	+20%	−22.55%	−8.35	48.5	7.769	39.5	50.48% and 50%	1400	367 ± 17.8
CCOC(=O)c1sc2nc(C)nc(N)c2c1C [Compound 5, Ethyl 4-Amino-2,5-Dimethyl-Thieno[2,3-d]Pyrimidine-6-Carboxylate]	22.27% and 22%	23.31% and 23%	arrest was detected in the G1 phase	+20.54%	−15.7%	−10.2	48.7	8.40	38.7	35.94% and 36%	2500	618 ± 29.7
